{"source": "patent EP0103895A2", "about": "“Novel hydroxylamine derivatives, production and use thereof” (MEIJI SEIKA KABUSHIKI KAISHA, priority 1982, dated 1984)", "key": {"[1]": {"test_system": "fowl roundworm (Ascaridia galli)", "assay": "Anthelmintic test in chickens artificially infected with fowl roundworm, single oral dose in gelatin capsule, worm bodies counted within 48 hours (Test Examples A1, B1, C1, D1)", "format": "in vivo", "conditions": "Ascaridia galli, po, 48 h, chicken, chickens No.1-3, read-out: Anthelmintic effect after 48 hours", "procedure,_shortened": "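Anthelmintic percentage derived from counts of worms passed within 48 h plus worms left in the intestine after killing at 48 h. Infection confirmed by fecal examination in three-bird groups; compound given orally once in gelatin capsules at 10/20 (A1, B1), 30/50 (C1) or 15/30 (D1) mg/kg.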"}, "[2]": {"test_system": "fowl roundworm (As. galli)", "assay": "Anthelmintic test in chickens artificially infected with fowl roundworm, compound added to feed, E.P.G. and worm count up to 21st day (Test Examples A2, B2, C2, D2)", "format": "in vivo, Ascaridia galli", "conditions": "Ascaridia galli, feed or water, 504 h, chicken, read-out: Anthelmintic effect"}, "[3]": {"test_system": "canine strongyloides (Strongyloides stercoralis)", "assay": "Anthelmintic test against canine strongyloides in naturally infected dogs, E.P.G. on 7th day (Test Examples A4, B4, C4, D4)", "format": "in vivo"}, "[4]": {"test_system": "Trichostrongylidae (Trichostrongylus colubriformis)", "assay": "Anthelmintic test against sheep Trichostrongylidae in naturally infected sheep, E.P.G. on 7th day (Test Examples A7, B7, C7, D7)", "format": "in vivo", "conditions": "one administration of 15 mg/Kg", "experimental": "Two sheep infected with Trichostrongylidae (naturally infected sheep) were employed.\nThe compound provided for the test was Compound No. Al, 15 mg of which was placed in a gelatin capsule per 1 Kg of body weight and administered orally to one of the sheep. As a control, only gelatin capsules were administered orally to the other sheep.\nBefore administration and on the 7th day after administration, fecal matter testing was conducted to calculate the E.P.G., and the anthelmintic effect was judged by the changing of the E.P.G. to negative.\nAs control, only gelatin capsules were administered orally to the other sheep.\nAs control, only gelatin capsule was administered orally to the other sheep."}, "[5]": {"test_system": "Trichostrongylidae (Trichostrongylus colubriformis)", "assay": "Anthelmintic test against sheep Trichostrongylidae in naturally infected sheep, E.P.G. on 7th day (Test Examples A7, B7, C7, D7)", "format": "in vivo", "conditions": "Trichostrongylus colubriformis"}}, "note": "Where “and” joins values, the source holds several entries; their conditions need not be identical. Identical values can stand only once."}
{"molecule": "CC=CCON(CC=CC)C(C)=O", "note": "[Compound C10]", "values": [{"measurement": "inhibition in vivo at 30 mg/kg", "setting": "[1]; 30 mg/Kg oral in gelatin capsule", "value": "80 to 90", "unit": "%"}, {"measurement": "inhibition in vivo at 50 mg/kg", "setting": "[1]; 50 mg/Kg oral in gelatin capsule", "value": 100, "unit": "%"}, {"measurement": "inhibition in vivo at 25 ppm", "setting": "[2]; 25 ppm in feed", "value": "80 to 90", "unit": "%"}, {"measurement": "inhibition in vivo at 50 ppm", "setting": "[2]; 50 ppm in feed", "value": 100, "unit": "%"}, {"measurement": "Change of E.P.G. 7th day", "setting": "[3]; dog, Strongyloides stercoralis, 30 mg/Kg oral in gelatin capsule, one administration", "value": 0}, {"measurement": "Change of E.P.G. Before administration", "setting": "[3]; dog, Strongyloides stercoralis, before 30 mg/Kg oral (baseline)", "value": "2,300 and 3,100"}, {"measurement": "anthelmintic effect", "setting": "[3]; dogs, one administration of 30 mg/Kg", "value": "marked anthelmintic effect"}, {"measurement": "anthelmintic effect", "setting": "[4]", "value": "marked anthelmintic effect"}, {"measurement": "Change of E.P.G. 7th day", "setting": "[5]; 20 mg/Kg oral in gelatin capsule, one administration", "value": 0}, {"measurement": "Change of E.P.G. Before administration", "setting": "[5]; before 20 mg/Kg oral (baseline)", "value": "1,800"}]}
